Key:
myeloma cell lines [1] = experiment: Apoptosis assay (Annexin V/PI staining, TUNEL), myeloma cell lines; format: cell-based, human; conditions: for protection from β2m-induced apoptosis / spontaneous apoptosis of myeloma cells: IL-6 20 ng/ml or IGF-I 50 ng/ml, ARK-RS and RPMI-8226; for protection from B2 anti-β2m antibody-induced apoptosis: cytokines added to myeloma cells
Method: (§1) The fraction of apoptotic cells was determined by staining cells with Annexin V-fluorescein isothiocyanate (FITC) (Immunotech) and propidium iodide (PI) (Sigma) (Vermes, I., et al., J. Immunol. Methods, 184:39-51, 1995). […] 5 μl of Annexin V-FITC (BD PharMingen, San Diego, Calif.) were added and incubated for 30 minutes. After washing and re-suspension of the cells in the binding buffer, 5 μl of PI were added, and the cells were ready for analysis. Percentages of apoptotic cells are the sum of PI^−/Annexin V^+ (newly apoptotic) and PI^+/Annexin V^+ (already apoptotic) cell populations (Vermes, I., et al., J. Immunol. Methods, 184:39-51, 1995).
A flow cytometry-based cell death detection kit (APO-BRDU) was purchased from BD PharMingen, and experiments were performed according to the manufacturer's protocol.

caspase-3 and PARP = experiment: Western blot of caspase-3 activation and PARP cleavage in myeloma cells; format: cell-based, human; conditions: Z-VAD-FMK 100 μM; ARK-RS and RPMI-8226
Method: Cells were cultured with or without 40 μg/ml β2m for 48 hours, harvested, washed, and lysed with lysis buffer (50 mM Tris, pH 7.5, 140 mM NaCl, 5 mM EDTA, 5 mM NaN3, 1% Triton-X-100, 1% NP-40, 1× protease inhibitor cocktail). […] The membrane was stripped and reprobed with anti-β-actin antibody (Santa Cruz Biotechnology) to ensure equivalent protein loading. For detection of caspase-3 activation and cleavage of poly(ADP-ribose) polymerase (PARP), the membranes were immunoblotted with anti-caspase-3 antibody (Santa Cruz Biotechnology) or anti-PARP antibody (BD PharMingen). Secondary antibodies conjugated to horseradish peroxidase were used for detection, followed by enhanced chemiluminescence (Bio-Rad Laboratories, Hercules, Calif.) and autoradiography.

Jurkat cells = experiment: Apoptosis in Jurkat cells; format: cell-based; conditions: Z-VAD-FMK 100 μM; antibody 100 ng/ml, 18-hour culture
Method: as §1
A pan-caspase inhibitor, z-Val-Ala-Asp-fluoromethyl ketone (Z-VAD-FMK) or caspase I inhibitor V, was purchased from Calbiochem-Novabiochem. This peptide was dissolved in dimethylsulfoxide (DMSO, Sigma) and added to cell suspensions at a final concentration of 100 μM (final DMSO concentration of 0.25%).
When the pan-caspase inhibitor Z-VAD-FMK was added to the culture, activation and processing of caspase-3 (data not shown), cleavage of PARP (FIG. 5B), and apoptosis (FIG. 5C) were inhibited.

myeloma cell lines [2] = conditions: RPMI-8226 and U266; cited from earlier work

Molecule | protection from β2m-induced apoptosis (myeloma cell lines [1]) | spontaneous apoptosis of myeloma cells (myeloma cell lines [1]) | protection from B2 anti-β2m antibody-induced apoptosis (myeloma cell lines [1]) | effect on β2m-induced apoptosis (myeloma cell lines [1]; Z-VAD-FMK 100 μM, RPMI-8226, β2m 40 μg/ml, 48-hour culture) | effect on β2m-induced caspase-3 activation and PARP cleavage (caspase-3 and PARP) | effect on anti-Fas antibody 7C11-induced apoptosis (Jurkat cells) | sensitivity of myeloma cell lines to melphalan (myeloma cell lines [2])
IL-6: recombinant human IL-6 (R&D Systems), growth and survival factor for myeloma cells | protected myeloma cells from β2m-induced apoptosis | reduced the percentage of cells undergoing spontaneous apoptosis | do not protect myeloma cells |  |  |  | 
z-Val-Ala-Asp-fluoromethyl ketone [Z-VAD-FMK] |  |  |  | inhibited | inhibited | abrogated apoptosis | 
IGF-I: recombinant human IGF-I (R&D Systems), growth and survival factor for myeloma cells | only IL-6 protected myeloma cells | reduced the percentage of cells undergoing spontaneous apoptosis | do not protect myeloma cells |  |  |  | 
N[C@@H](Cc1ccc(N(CCCl)CCCl)cc1)C(=O)O [melphalan] |  |  |  |  |  |  | sensitive
